In article PMC11530122, “Mutant induced neurons and humanized mice enable identification of Niemann-Pick type C1 proteostatic therapies” (JCI Insight, 2024):

Biological target: T1, NPC1 (Homo sapiens, UniProt O15118)
T1 construct: full-length WT human NPC1, C-terminal Strep tag, in peptidiscs
T1 sequence (O15118 23-1278): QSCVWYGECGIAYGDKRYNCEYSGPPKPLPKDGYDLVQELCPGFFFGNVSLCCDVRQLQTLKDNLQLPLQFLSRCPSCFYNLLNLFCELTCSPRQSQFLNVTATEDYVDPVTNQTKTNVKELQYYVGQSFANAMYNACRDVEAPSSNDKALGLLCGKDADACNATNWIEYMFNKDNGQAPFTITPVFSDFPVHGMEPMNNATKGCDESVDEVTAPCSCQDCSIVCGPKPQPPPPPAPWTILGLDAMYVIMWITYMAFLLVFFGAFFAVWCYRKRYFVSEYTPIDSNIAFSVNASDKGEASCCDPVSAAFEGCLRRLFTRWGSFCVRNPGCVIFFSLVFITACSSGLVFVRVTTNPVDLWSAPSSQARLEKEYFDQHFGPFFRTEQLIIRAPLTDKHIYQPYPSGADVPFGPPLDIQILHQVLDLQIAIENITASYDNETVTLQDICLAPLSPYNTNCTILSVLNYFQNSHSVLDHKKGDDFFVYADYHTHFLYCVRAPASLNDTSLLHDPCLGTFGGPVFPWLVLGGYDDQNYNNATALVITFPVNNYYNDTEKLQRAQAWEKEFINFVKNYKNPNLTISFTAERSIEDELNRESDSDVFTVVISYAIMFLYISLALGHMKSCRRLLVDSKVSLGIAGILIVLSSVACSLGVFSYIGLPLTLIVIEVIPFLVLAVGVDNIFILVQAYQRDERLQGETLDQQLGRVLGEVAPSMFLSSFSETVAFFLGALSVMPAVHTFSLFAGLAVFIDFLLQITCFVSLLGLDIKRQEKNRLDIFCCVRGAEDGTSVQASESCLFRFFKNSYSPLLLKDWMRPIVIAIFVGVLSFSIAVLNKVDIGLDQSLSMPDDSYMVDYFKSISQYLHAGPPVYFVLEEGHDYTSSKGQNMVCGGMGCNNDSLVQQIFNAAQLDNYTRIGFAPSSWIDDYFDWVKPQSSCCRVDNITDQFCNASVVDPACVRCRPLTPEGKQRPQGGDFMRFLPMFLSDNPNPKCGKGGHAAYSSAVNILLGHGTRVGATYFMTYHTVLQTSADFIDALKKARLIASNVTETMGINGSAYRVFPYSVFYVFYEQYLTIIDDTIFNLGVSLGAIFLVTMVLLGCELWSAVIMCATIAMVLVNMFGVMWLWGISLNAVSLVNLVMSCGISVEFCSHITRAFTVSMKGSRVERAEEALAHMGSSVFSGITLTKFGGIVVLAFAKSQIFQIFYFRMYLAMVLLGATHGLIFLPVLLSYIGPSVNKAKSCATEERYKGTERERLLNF
Assay: microscale thermophoresis; nanoDSF thermal stability with purified NPC1 (EC50 approximately […])
Type: binding

- EC50: 177 nM
Substance: mo56-hydroxycholesterol [mo56Hc]
